System: THP-1
Experiment: cell viability (% survival relative to DMSO control, bortezomib = 0%); higher = less cytotoxic
Conditions: 100 nM; 72 h
How it was run: (§1)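 In 384-well plates pre-printed with compounds at 1, 10, 100, 1000 or 10000 nM, duplicate wells received cells from 10 AML and 5 CML lines at densities within the linear growth range. The plates stayed at 37 °C with 5% CO2 for 72 h before CellTiter-Glo luminescence was recorded. Each entry is averaged percent survival. Scaling placed vehicle at 100% and a 10 µM positive control at 0%.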

SMILES | cell viability [%]
Cc1ccccc1C(C(=O)NC1CCCCC1)N(C(=O)Cn1ccnc1C)c1cccc(F)c1 (stereo unspecified) [AGI-5198] | 107
CC(C)(C#N)c1cc(Cn2cncn2)cc(C(C)(C)C#N)c1 [Anastrozole] | 99.8
O=C(O)C1=CC(=C(c2ccc(O)c(C(=O)O)c2)c2ccc(O)c(C(=O)O)c2)C=CC1=O [Aurintricarboxylic acid] | 109

Same assay, conditions: 1000 nM; 72 h

SMILES | cell viability [%]
CN(C)C(=O)[C@H](O)[C@H](Cc1ccccc1)NC(=O)c1cc2cc(Cl)ccc2[nH]1 | 104
COc1ccc(CNC(=O)Nc2ncc([N+](=O)[O-])s2)cc1 | 105
CCOP(=O)(OCC)C(=Cc1cc(C(C)(C)C)c(O)c(C(C)(C)C)c1)P(=O)(OCC)OCC | 83.9
COc1ccc(-c2ccccc2)cc1NS(=O)(=O)c1cc(Cl)cc(Cl)c1O | 85.5
C[C@H](NC(=O)c1sccc1OCc1ccc(Cl)cc1)c1ccccc1 | 103
O=C(O)c1cc(Cl)cc(Cl)c1O [3,5-Dichlorosalicylic Acid] | 96.7
O=C(O)C(=O)CBr [3-bromopyruvic acid] | 93.4
NS(=O)(=O)c1ccc([N+](=O)[O-])cc1 [4-Nitrobenzenesulfonamide] | 104
Cc1ccccc1C(C(=O)NC1CCCCC1)N(C(=O)Cn1ccnc1C)c1cccc(F)c1 (stereo unspecified) [AGI-5198] | 101
CC(C)(C#N)c1cc(Cn2cncn2)cc(C(C)(C)C#N)c1 [Anastrozole] | 99.9
O=C(O)C1=CC(=C(c2ccc(O)c(C(=O)O)c2)c2ccc(O)c(C(=O)O)c2)C=CC1=O [Aurintricarboxylic acid] | 97.5

Same assay, conditions: 10000 nM; 72 h

SMILES | cell viability [%]
CN(C)C(=O)[C@H](O)[C@H](Cc1ccccc1)NC(=O)c1cc2cc(Cl)ccc2[nH]1 | 91.8
COc1ccc(CNC(=O)Nc2ncc([N+](=O)[O-])s2)cc1 | 99.1
CCOP(=O)(OCC)C(=Cc1cc(C(C)(C)C)c(O)c(C(C)(C)C)c1)P(=O)(OCC)OCC | 85.1
COc1ccc(-c2ccccc2)cc1NS(=O)(=O)c1cc(Cl)cc(Cl)c1O | 99.9
C[C@H](NC(=O)c1sccc1OCc1ccc(Cl)cc1)c1ccccc1 | 92.1
O=C(O)c1cc(Cl)cc(Cl)c1O [3,5-Dichlorosalicylic Acid] | 98.8
O=C(O)C(=O)CBr [3-bromopyruvic acid] | 107
NS(=O)(=O)c1ccc([N+](=O)[O-])cc1 [4-Nitrobenzenesulfonamide] | 90.7
Cc1ccccc1C(C(=O)NC1CCCCC1)N(C(=O)Cn1ccnc1C)c1cccc(F)c1 (stereo unspecified) [AGI-5198] | 100
CC(C)(C#N)c1cc(Cn2cncn2)cc(C(C)(C)C#N)c1 [Anastrozole] | 96.3
O=C(O)C1=CC(=C(c2ccc(O)c(C(=O)O)c2)c2ccc(O)c(C(=O)O)c2)C=CC1=O [Aurintricarboxylic acid] | 99.4

System: Mono-Mac-6
Experiment: as above
Conditions: 1 nM; 72 h
How it was run: as §1

SMILES | cell viability [%]
CN(C)C(=O)[C@H](O)[C@H](Cc1ccccc1)NC(=O)c1cc2cc(Cl)ccc2[nH]1 | 94.8
COc1ccc(CNC(=O)Nc2ncc([N+](=O)[O-])s2)cc1 | 96
CCOP(=O)(OCC)C(=Cc1cc(C(C)(C)C)c(O)c(C(C)(C)C)c1)P(=O)(OCC)OCC | 93.3
COc1ccc(-c2ccccc2)cc1NS(=O)(=O)c1cc(Cl)cc(Cl)c1O | 102
C[C@H](NC(=O)c1sccc1OCc1ccc(Cl)cc1)c1ccccc1 | 88.8
O=C(O)c1cc(Cl)cc(Cl)c1O [3,5-Dichlorosalicylic Acid] | 106
O=C(O)C(=O)CBr [3-bromopyruvic acid] | 96.3
NS(=O)(=O)c1ccc([N+](=O)[O-])cc1 [4-Nitrobenzenesulfonamide] | 101
Cc1ccccc1C(C(=O)NC1CCCCC1)N(C(=O)Cn1ccnc1C)c1cccc(F)c1 (stereo unspecified) [AGI-5198] | 92.8
CC(C)(C#N)c1cc(Cn2cncn2)cc(C(C)(C)C#N)c1 [Anastrozole] | 103
O=C(O)C1=CC(=C(c2ccc(O)c(C(=O)O)c2)c2ccc(O)c(C(=O)O)c2)C=CC1=O [Aurintricarboxylic acid] | 98.6

Same assay, conditions: 10 nM; 72 h

SMILES | cell viability [%]
CN(C)C(=O)[C@H](O)[C@H](Cc1ccccc1)NC(=O)c1cc2cc(Cl)ccc2[nH]1 | 97.8
COc1ccc(CNC(=O)Nc2ncc([N+](=O)[O-])s2)cc1 | 98
CCOP(=O)(OCC)C(=Cc1cc(C(C)(C)C)c(O)c(C(C)(C)C)c1)P(=O)(OCC)OCC | 99.4
COc1ccc(-c2ccccc2)cc1NS(=O)(=O)c1cc(Cl)cc(Cl)c1O | 86.8
C[C@H](NC(=O)c1sccc1OCc1ccc(Cl)cc1)c1ccccc1 | 102
O=C(O)c1cc(Cl)cc(Cl)c1O [3,5-Dichlorosalicylic Acid] | 102
O=C(O)C(=O)CBr [3-bromopyruvic acid] | 93
NS(=O)(=O)c1ccc([N+](=O)[O-])cc1 [4-Nitrobenzenesulfonamide] | 97.3
Cc1ccccc1C(C(=O)NC1CCCCC1)N(C(=O)Cn1ccnc1C)c1cccc(F)c1 (stereo unspecified) [AGI-5198] | 107
CC(C)(C#N)c1cc(Cn2cncn2)cc(C(C)(C)C#N)c1 [Anastrozole] | 102
O=C(O)C1=CC(=C(c2ccc(O)c(C(=O)O)c2)c2ccc(O)c(C(=O)O)c2)C=CC1=O [Aurintricarboxylic acid] | 98.6

Same assay, conditions: 100 nM; 72 h

SMILES | cell viability [%]
CN(C)C(=O)[C@H](O)[C@H](Cc1ccccc1)NC(=O)c1cc2cc(Cl)ccc2[nH]1 | 103
COc1ccc(CNC(=O)Nc2ncc([N+](=O)[O-])s2)cc1 | 96.7
CCOP(=O)(OCC)C(=Cc1cc(C(C)(C)C)c(O)c(C(C)(C)C)c1)P(=O)(OCC)OCC | 129
COc1ccc(-c2ccccc2)cc1NS(=O)(=O)c1cc(Cl)cc(Cl)c1O | 97.8
C[C@H](NC(=O)c1sccc1OCc1ccc(Cl)cc1)c1ccccc1 | 102
O=C(O)c1cc(Cl)cc(Cl)c1O [3,5-Dichlorosalicylic Acid] | 93.7
O=C(O)C(=O)CBr [3-bromopyruvic acid] | 93.2
NS(=O)(=O)c1ccc([N+](=O)[O-])cc1 [4-Nitrobenzenesulfonamide] | 98.1
Cc1ccccc1C(C(=O)NC1CCCCC1)N(C(=O)Cn1ccnc1C)c1cccc(F)c1 (stereo unspecified) [AGI-5198] | 100
CC(C)(C#N)c1cc(Cn2cncn2)cc(C(C)(C)C#N)c1 [Anastrozole] | 111
O=C(O)C1=CC(=C(c2ccc(O)c(C(=O)O)c2)c2ccc(O)c(C(=O)O)c2)C=CC1=O [Aurintricarboxylic acid] | 104

Same assay, conditions: 1000 nM; 72 h

SMILES | cell viability [%]
CN(C)C(=O)[C@H](O)[C@H](Cc1ccccc1)NC(=O)c1cc2cc(Cl)ccc2[nH]1 | 96.5
COc1ccc(CNC(=O)Nc2ncc([N+](=O)[O-])s2)cc1 | 91.3
CCOP(=O)(OCC)C(=Cc1cc(C(C)(C)C)c(O)c(C(C)(C)C)c1)P(=O)(OCC)OCC | 75.2
